Patent publication US20220287936A1, “AN ANTIDANDRUFF COMPOSITION” (Conopco, Inc., d/b/a UNILEVER, priority 2019, published 2022)

Tested on: Malassezia furfur 14521
Test: Antifungal activity on M. furfur (resazurin viability assay, MIC and ΣFIC synergy evaluation)
Type: cell-based
Conditions: M. furfur 14521, YPD broth, 30° C., 72 hours, resazurin readout
Protocol: The samples as given in Table-1 were subjected to their anti fungal efficacy on M. furfur as described hereinafter.
The test organism used in the assay is Malassezia furfur 14521. The M. furfur were revived from glycerol stock in YPD agar plates (yeast extract peptone dextrose media) containing 1% corn oil. The composition of YPD is yeast extract:10 g/litre, dextrose 20 g/litre, Peptone 20 g/litre and […]. The plates were incubated at 30° C. for 72 hours for forming fungal colonies. A suspension culture of M. furfur was made using the colonies from plates in YPD broth. The optical density of the suspension culture was adjusted to 0.6 using spectrophotometer. This suspension was diluted in the ratio of 1:10 using YPD broth and 100 μl of this culture was added into each well of 96 well test plate. A stock solution of 4× strength of test ingredients (itaconic acid and sodium benzoate) was prepared for each of the concentrations tested eg for 0.125% test concentration of itaconic acid/sodium benzoate a stock of 0.5% was prepared in YPD broth. 50 μl of each of the test ingredient was added to 100 μl of M. furfur culture, making the final volume to 200 μl. In wells containing only one test ingredient, (itaconic acid or sodium benzoate only) 50 μl of test ingredient was added to 100 μl of fungal culture and then made up the volume to 200 μl with YPD broth. The plates were incubated at 30° C. for 72 hours. Post incubation 10 μl of 1% resazurin was added to each well and incubated for 18 hours at 30° C. […] The anti-fungal efficacy of the ingredient or combination of ingredients is calculated based on the colour development.
The combinations of test ingredients with synergistic anti-fungal benefits were evaluated using ΣFIC method. The ΣFIC of the combinations were calculated using the following formula • ΣFIC of combination A+B=[Concentration of A]/MIC of A+[concentration of B]/MIC of B, where MIC is the Minimum inhibitory concentration (MIC) of ingredient. […]

| Structure (SMILES) | MIC (Minimum inhibitory concentration) [wt %] |
| --- | --- |
| C=C(CC(=O)OC)C(=O)OC [Dimethyl itaconate] | 0.5 |
| C=C(CC(=O)O)C(=O)O [Itaconic acid] | 0.25 |
| O=C([O-])c1ccccc1.[Na+] [Sodium Benzoate] | 0.5 |
